Measurements published in patent US8785452B2, “Anti-infective compounds” (priority 2008, dated 2014).
Where two headings read alike, the source gives them in different places.

Test system: M. tuberculosis H37Rv-GFP
Assay: microbe, parasite or virus in culture
Assay type: cell-based, Mycobacterium tuberculosis
Conditions: Mycobacterium tuberculosis, H37RV, Macrophage, intracellular
[1] = confirmation, 20 uM, read-out: QIM Confirm % Inhibition 20 uM
[2] = primary screen, 20 μM, read-out: Primary QIM % Inhibition

| Structure (SMILES) | inhibition at 20 µM [1] | inhibition at 20 µM [2] |
| --- | --- | --- |
| CCOc1ccc(NCCCCO)cc1 [IPK 000 172 54] | 40.4% | 4.1% |
| O=C(N/N=C/c1c(Cl)cccc1Cl)c1ccncc1 [IPK 000 170 33] | 96.3% | 49.5% |
| O=C(CSc1ccc(Nc2ccc(Cl)cc2)nn1)Nc1ccc(Cl)cc1 [IPK 000 200 16] | 76.8% | 73.3% |
| Cc1ccsc1/C=C1/SC(N2CCCCC2)=NC1=O [IPK 000 129 72] | 75.4% | 61.8% |
| Cc1noc(NS(=O)(=O)c2ccc(N)cc2)c1C [IPK 000 254 12] | 13.2% | 30.3% |
| Cc1ccc(-c2c(CN3CCCCC3)c(N)nc3ccccc23)cc1 [IPK 000 222 00] | 86.2% | 74.4% |
| O=C(COc1ccc(F)cc1)N/N=C/c1ccc([N+](=O)[O-])o1 [IPK 000 148 04] | 59.3% | 21.8% |
| CC1=NN(C(N)=S)C(=O)/C1=N/Nc1ccc(O)cc1 [IPK 000 171 84] | 13.3% | -79.6% |
| O=C(CCc1ccccc1)N1CCN(Cc2ccccc2)CC1 [IPK 000 126 73] | 60.8% | 85.7% |
| CSc1ccc(/C=N/c2ccccc2O)cc1 [IPK 000 169 96] | 14.7% | -50.2% |
| O=[N+]([O-])c1ccc(CSc2nnnn2C2CCCCC2)cc1 [IPK 000 258 07] | 72.7% | 49.9% |
| Nc1nc2ccccc2c(-c2cccc3ccccc23)c1CN1CC1 [IPK 000 222 04] | 85.8% | 65.4% |
| COc1ccc(/C=N/Nc2nc(-c3ccccc3)cs2)cc1 [IPK 000 163 62] | 107% | 81.3% |
| Cc1ccc2nc(-c3ccc(NC(=O)CN4CCCC4)cc3)sc2c1 [IPK 000 125 61] | 85.8% | 44.1% |
| O=C(COc1cccc(Cl)c1)N/N=C/c1ccc([N+](=O)[O-])o1 [IPK 000 147 98] | 72.3% | 6.3% |
| C/C(=N\NC(=S)Nc1cccc(C)c1)c1ccco1 [IPK 000 173 45] | 19.2% | 14.9% |
| NNC(=O)c1ccc(COc2ccc(Cl)cc2)o1 [IPK 000 140 87] | 91.1% | 92.2% |
| CCc1ccc(C2(O)CC(C(F)(F)F)=NN2C(=O)c2ccncc2)cc1 (centres unmarked) [IPK 000 134 51] | 102% | 90.2% |
| O=[N+]([O-])c1ccc(/C=N/N(CCO)C2=NS(=O)(=O)c3ccccc32)o1 [IPK 000 222 32] | 63.2% | 16.2% |
| COc1cccc(C(CC(=O)c2ccc(Cl)cc2)C(C#N)C#N)c1 (centres unmarked) [IPK 000 130 54] | 65.8% | 66.7% |
| C/C(=N/c1ccc(S(=O)(=O)N2CCOCC2)cc1)Nc1ccc(C(=O)O)c(O)c1 [IPK 000 128 37] | 26.5% | 43.8% |
| O=C(Nc1cccc(C(F)(F)F)c1)c1cccs1 [IPK 000 202 08] | 67.4% | 65.7% |
| O=C(Nc1ccc(NC(=O)c2cccnc2)cc1)C1=CCCS1 [IPK 000 199 70] | 69.6% | 70.5% |
| CSc1ccc(/C=N/Nc2nc(-c3ccc(NC(=O)CCC(=O)O)cc3)cs2)cc1 [IPK 000 262 07] | 7.9% | 80.3% |
| O=c1[nH]cc(Sc2cccc3cccnc23)c(=O)[nH]1 [IPK 000 149 02] | 19.1% | 23.5% |
| O=C1OCc2cc(NC(=O)C34CC5CC(CC(C5)C3)C4)ccc21 [IPK 000 249 14] | 68.6% | 45% |
| Cc1c(Cl)cccc1/N=C/c1ccc([N+](=O)[O-])o1 [IPK 000 167 54] | 16.5% | 19.5% |
| CCOC(=O)c1sc(NC(=O)CCCc2ccccc2)nc1C [IPK 000 254 25] | 18.5% | 32.5% |
